Measured values taken from ChEMBL document CHEMBL4602603, “A review on HCV inhibitors: Significance of non-structural polyproteins” (Eur J Med Chem, 2019).

What was measured:
[1] = molecular target: T1, RNA-directed RNA polymerase (Hepacivirus hominis, UniProt O39930); test: Inhibition of HCV NS5B polymerase
[2] = molecular target: T2, Hepatitis C virus serine protease, NS3/NS4A (Hepatitis C virus, UniProt A3EZI9+D2K2A8); test: Inhibition of HCV NS3/4a protease using Ac-DE-Dap(QXL520)-EE-Abu-shi-[COO]AS-C(5-FAMsp)-NH2 as substrate after 15 mins; format: protein-complex assay, Hepacivirus hominis
[3] = tested on: Hepatitis C virus; test: Antiviral activity against HCV; format: functional, organism-based, Hepacivirus hominis
[4] = molecular target: T2, Hepatitis C virus serine protease, NS3/NS4A; test: Inhibition of HCV NS3/4a protease; format: protein-complex assay, Hepacivirus hominis
[5] = molecular target: T1, RNA-directed RNA polymerase; test: Binding affinity to HCV NS5B polymerase
[6] = molecular target: T2, Hepatitis C virus serine protease, NS3/NS4A; test: Inhibition of HCV NS3/4a protease in presence Zn2+; format: protein-complex assay, Hepacivirus hominis
[7] = tested on: Hepatitis C virus; test: Antiviral activity against HCV genotype 1a; format: functional, organism-based, Hepacivirus hominis; settings: subtype 1a
[8] = tested on: Hepatitis C virus; test: Antiviral activity against HCV genotype 1b; format: functional, organism-based, Hepacivirus hominis; settings: subtype 1b
[9] = tested on: Hepatitis C virus; test: Antiviral activity against HCV genotype 3a; format: functional, organism-based, Hepacivirus hominis; settings: subtype 3a

T2 sequence (D2K2A8 whole entry): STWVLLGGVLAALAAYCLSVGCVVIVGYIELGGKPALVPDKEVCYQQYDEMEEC
T2 sequence (A3EZI9 whole entry): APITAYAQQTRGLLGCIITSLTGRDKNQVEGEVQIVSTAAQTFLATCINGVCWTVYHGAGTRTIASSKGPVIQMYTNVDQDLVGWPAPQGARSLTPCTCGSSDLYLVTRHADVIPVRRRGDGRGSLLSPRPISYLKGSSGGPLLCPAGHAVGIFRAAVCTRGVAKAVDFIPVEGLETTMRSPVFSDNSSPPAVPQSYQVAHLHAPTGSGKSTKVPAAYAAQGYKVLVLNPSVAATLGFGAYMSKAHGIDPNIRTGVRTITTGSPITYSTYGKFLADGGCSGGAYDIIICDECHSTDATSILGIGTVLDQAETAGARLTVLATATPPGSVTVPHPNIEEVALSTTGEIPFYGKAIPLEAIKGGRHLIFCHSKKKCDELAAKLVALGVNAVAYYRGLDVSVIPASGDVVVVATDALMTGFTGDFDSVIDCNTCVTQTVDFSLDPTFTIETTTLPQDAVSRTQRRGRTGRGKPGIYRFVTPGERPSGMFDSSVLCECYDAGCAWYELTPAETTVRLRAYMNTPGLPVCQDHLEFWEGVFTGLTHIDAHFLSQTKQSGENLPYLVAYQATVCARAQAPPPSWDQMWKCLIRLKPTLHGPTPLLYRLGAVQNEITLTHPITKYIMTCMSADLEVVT
T1 sequence (O39930 whole entry): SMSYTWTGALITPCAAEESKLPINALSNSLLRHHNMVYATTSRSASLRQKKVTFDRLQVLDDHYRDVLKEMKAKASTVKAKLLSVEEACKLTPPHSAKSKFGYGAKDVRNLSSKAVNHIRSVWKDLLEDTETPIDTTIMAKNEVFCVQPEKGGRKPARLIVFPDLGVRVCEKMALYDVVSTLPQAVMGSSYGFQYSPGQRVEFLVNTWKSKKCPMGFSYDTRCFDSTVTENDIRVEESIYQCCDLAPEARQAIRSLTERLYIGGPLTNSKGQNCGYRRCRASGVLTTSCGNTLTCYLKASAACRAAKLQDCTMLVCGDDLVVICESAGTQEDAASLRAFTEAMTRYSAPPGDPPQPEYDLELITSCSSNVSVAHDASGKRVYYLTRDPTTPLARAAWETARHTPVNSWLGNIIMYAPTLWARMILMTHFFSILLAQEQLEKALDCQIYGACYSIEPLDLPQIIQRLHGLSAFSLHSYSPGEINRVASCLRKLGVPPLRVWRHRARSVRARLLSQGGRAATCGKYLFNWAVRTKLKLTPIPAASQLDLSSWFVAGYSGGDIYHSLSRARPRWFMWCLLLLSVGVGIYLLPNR

Structure (SMILES) | EC50 [3] | other results
Cc1cc2c(-c3ccc[nH]c3=O)c(C(=O)NS(=O)(=O)C3CC3)n(Cc3cc(F)ccc3F)c2cc1F | – | IC50 [1]: 8 nM
CCCC[C@H](NC(=O)[C@@H]1[C@@H]2[C@H](CN1C(=O)[C@@H](NC(=O)NC1(CS(=O)(=O)C(C)(C)C)CCCCC1)C(C)(C)C)C2(C)C)C(=O)C(=O)NC1CC1 | 40 nM | Ki [2]: 6 nM
CCCCn1cc(/C=C2\Oc3cc(O)cc(O)c3C2=O)c2ccccc21 | 2200 nM | –
CC(=O)N[C@@H](C(=O)O)C(=O)N[C@@H](CCC(=O)O)C(=O)N[C@H](C(=O)N[C@@H](CCC(=O)O)C(=O)N[C@@H](CC1CCCCC1)C(=O)N[C@@H](CS)C(=O)O)C(c1ccccc1)c1ccccc1 | – | Ki [4]: 40 nM
COCCOc1nc(N)c2[nH]c(=O)n(Cc3ccccc3)c2n1 | 20000 nM | –
CC(=O)N[C@@H](C(=O)O)C(=O)N[C@@H](CCC(=O)O)C(=O)N[C@H](C(=O)N[C@H](C(=O)N1C[C@H](OCc2ccccc2)C[C@H]1C(=O)NC1(C(=O)O)CC1)C(C)C)C1CCCCC1 | – | IC50 [4]: 51 nM
CC(C)C[C@H](NC[C@H](CC(=O)O)NC(=O)[C@H](CC1CCCCC1)NC(=O)[C@@H]1CCCC[C@H]1C(=O)O)C(N)=O | – | IC50 [4]: 15000 nM
O=C(O)C1C(c2ccccc2)c2ccccc2C(=O)N1O (centres undefined) | – | IC50 [5]: 15700 nM
O=C1Cn2c(c(C3CCCCC3)c3ccc(C(=O)O)cc32)-c2ccccc2N1 | 240 nM | –
Cn1c(Cc2nc3cc(C(N)=O)ccc3[nH]2)nc2ccc(C(=O)NC(CP(=O)(O)O)C(=O)O)cc21 (centres undefined) | – | Ki [4]: 1000 nM; Ki [6]: 27 nM
O=C(O)c1ccc2c(C3CCCCC3)c3n(c2c1)CCN(CCN1CCCCC1)c1ccccc1-3 | 400 nM | –
Cc1ccc2c(-c3ccc[nH]c3=O)c(C(=O)NS(=O)(=O)C3CC3)n(Cc3cc(F)ccc3F)c2c1 | 90 nM | IC50 [1]: 5 nM
CS(=O)(=O)Nc1cccc(S(=O)(=O)NC(=O)c2c(-c3ccc[nH]c3=O)c3ccc(Cl)cc3n2Cc2ccnc(N)c2)c1 | 11 nM | IC50 [1]: 39 nM
CC[C@@H]1C[C@]1(NC(=O)[C@@H]1C[C@@H]2CN1C(=O)[C@H](C(C)(C)C)NC(=O)OCC(C)(C)CCCCc1cccc3c1CN(C3)C(=O)O2)C(=O)NS(=O)(=O)C1CC1 | – | IC50 [3]: 3 nM
CN(C)CCN(C)[C@@H]1Cn2c(c(C3CCCCC3)c3ccc(C(=O)O)cc32)-c2ccccc2O1 | 38 nM | –
CN(C)CCCn1c(N)nc2ccccc21 | – | Kd [5]: > 100000 nM
N#Cc1c(Cl)cc(Cl)cc1COc1cccc(C(=O)/C=C(\O)C(=O)O)c1 | – | IC50 [5]: 45000 nM
O=C(NCCCc1ccccc1)c1nc2ccccc2c(=O)n1O | – | IC50 [5]: 8800 nM
Cc1ccc(NC(=O)c2c(NO)cc(-c3ccccc3)oc2=O)cc1 | 180 nM | –

Structure (SMILES) | EC50 [3] | other results
C=C[C@@H]1C[C@]1(NC(=O)[C@@H]1C[C@@H](Oc2ncc(OC)c3ccc(Cl)cc23)CN1C(=O)[C@@H](NC(=O)OC(C)(C)C)C(C)(C)C)C(=O)NS(=O)(=O)C1CC1 | 1 nM | –
CCc1nc2c(N)nc3ccccc3c2n1CCCCNS(C)(=O)=O [CPG-52852] | 100000 nM | –
CN(C)CCN1CCn2c(c(C3CCCCC3)c3ccc(C(=O)O)cc32)-c2ccccc2C1 | 140 nM | –
COC(=O)N[C@H](C(=O)N1C[C@H](C)C[C@@H]1c1nc2sc(-c3ccc(-c4ccc(-c5c[nH]c([C@@H]6[C@H](C)CCN6C(=O)[C@H](NC(=O)OC)C(C)C)n5)cc4)cc3)cc2[nH]1)C(C)C | – | EC50 [7]: 0.017 nM; EC50 [8]: 0.008 nM
COC(=O)N[C@H](C(=O)N1CCC[C@H]1c1nc2ccc(-c3ccc(-c4ccc5nc([C@@H]6CCCN6C(=O)[C@@H](NC(=O)OC)C(C)C)[nH]c5c4)cc3)cc2[nH]1)C(C)C | 0.83 nM | –
CC(C)Cn1cnc2c(N)nc3ccccc3c21 [IMIQUIMOD] | 1000 nM | –
C=C[C@H]1C[C@]1(NC(=O)[C@@H]1C[C@@H]2CN1C(=O)[C@H](C(C)(C)C)NC(=O)O[C@@H]1C[C@H]1CCCCCc1c(nc3ccccc3c1OC1CC3CCC(C1)N3C)O2)C(=O)NS(=O)(=O)C1(C)CC1 (some centres undefined) | – | EC50 [8]: 0.62 nM; EC50 [9]: 0.26 nM
Nc1cc(Cn2c(C(=O)O)c(-c3ccc[nH]c3=O)c3ccc(Cl)cc32)ccn1 | 4800 nM | IC50 [1]: 53 nM
CC(C)C[C@H](NC(=O)[C@H](CC(=O)O)NC(=O)OC(C)C)C(=O)N[C@@H](CC(F)(F)F)C(=O)NCCc1ccc(C(=O)O)cc1Cl | – | Ki [4]: 600 nM
O=C(O)c1ccc2c(C3CCCCC3)c3n(c2c1)CCOc1cc(OCc2cc(N4CCCC4=O)ccc2N2CCOCC2)ccc1-3 | 7.6 nM | –
CC(=O)N[C@@H](C(=O)O)C(=O)N[C@@H](CCC(=O)O)C(=O)N[C@H](C(=O)N[C@H](C(=O)N1C[C@H](OCc2ccccc2)C[C@H]1C(=O)NC(CS)C(=O)O)C(C)C)C1CCCCC1 (some centres undefined) | – | IC50 [4]: 33 nM
O=C(N[C@@H](Cc1c[nH]c2ccc(O)cc12)c1cscn1)c1ccc2c(c1)nc(-c1ccco1)n2C1CCCCC1 | 1700 nM | –
Cn1c(-c2ccc(OCc3cc(N4CCCC4=O)ccc3N3CCOCC3)cc2)c(C2CCCCC2)c2sc(C(=O)O)cc21 | 52 nM | –
CN(C)C(=O)Cn1c(-c2ccccc2)c(C2CCCCC2)c2sc(C(=O)O)cc21 | 2900 nM | –
Nc1nc(C(F)(F)F)cc2c1[nH]c(=O)n2Cc1ccccc1 | 102000 nM | –
COc1ccc2c(c1)C=C1Cn3c-2c(C2CCCCC2)c2ccc(cc23)C(=O)NS(=O)(=O)N(C)CCOCCN(C)C1=O [TMC-647055] | 82 nM | –
Cn1c(-c2ccco2)c(C2CCCCC2)c2ccc(C(=O)N[C@@H](Cc3c[nH]c4ccc(O)cc34)c3cscn3)cc21 | 50 nM | –
CC(C)(C)OC(=O)N[C@H]1CCCCC/C=C\[C@@H]2C[C@@]2(C(=O)NS(=O)(=O)C2CC2)NC(=O)[C@@H]2C[C@@H](OC(=O)N3Cc4cccc(F)c4C3)CN2C1=O [DANOPREVIR] | 17.5 nM | IC50 [2]: 0.2 to 3.5 nM
CCN(CC)C1CCN(C(=O)Cn2c(-c3ccco3)c(C3CCCCC3)c3ccc(C(=O)NS(=O)(=O)N(C)C)cc32)CC1 | 120 nM | –

Structure (SMILES) | EC50 [3] | other results
C/C(=C/c1cc(-c2ccc(OCc3cc(CN4CCC(O)CC4=O)ccc3-c3ccc(C#N)cc3)cc2)n(C2CCCCC2)n1)C(=O)O (centres undefined) | 400 nM | –
CN(C)CCCn1c(N)nc2ccc3c(c21)CC(CN(C)C)O3 (centres undefined) | – | Kd [5]: 1700 nM
CC(=O)N[C@@H](C(=O)O)C(=O)N[C@@H](CCC(=O)O)C(=O)N[C@H](C(=O)N[C@@H](CCC(=O)O)C(=O)N[C@@H](CC1CCCCC1)C(=O)N[C@@H](CC(F)F)C(=O)O)C(c1ccccc1)c1ccccc1 | – | Ki [4]: 20 nM
COc1ccc2c(c1)[C@H]1[C@@H](CCN1CCN(C)C)CCn1c-2c(C2CCCCC2)c2ccc(C(=O)O)cc21 | 29 nM | –
COc1ccc2c(O[C@@H]3C[C@H]4C(=O)N[C@]5(C(=O)NS(=O)(=O)C6CC6)C[C@H]5/C=C/CCCCN(C)C(=O)[C@@H]4C3)cc(-c3nc(C(C)C)cs3)nc2c1C | – | IC50 [2]: 3 to 28.2 nM
CCc1ccc2c(-c3ccc[nH]c3=O)c(C(=O)NS(=O)(=O)C3CC3)n(Cc3cc([N+](=O)[O-])ccc3F)c2c1 | 1 nM | –
C=C[C@@H]1C[C@]1(NC(=O)[C@@H]1C[C@@H]2CN1C(=O)[C@H](C(C)(C)C)NC(=O)O[C@@H]1C[C@H]1CCCCCc1nc3ccc(OC)cc3nc1O2)C(=O)NS(=O)(=O)C1CC1 [GRAZOPREVIR ANHYDROUS] | 9.5 nM | –
COc1ccc2c(O[C@@H]3C[C@H]4C(=O)N[C@]5(C(=O)O)C[C@H]5/C=C\CCCCC[C@H](NC(=O)OC5CCCC5)C(=O)N4C3)cc(-c3csc(NC(C)C)n3)nc2c1 | 9.5 nM | –
O=C(N[C@@H](Cc1c[nH]c2ccccc12)C(=O)O)c1ccc2c(c1)nc(-c1ccoc1)n2C1CCCCC1 | – | IC50 [5]: 19 nM
COc1ccc2c(c1)C=C(c1c(C(=O)C3C4CCCC3COC4)cnn1-c1ccncc1C)Cn1c-2c(C2CCCCC2)c2ccc(C(=O)NS(=O)(=O)C(C)C)cc21 (centres undefined) | 4 nM | –
CC1COc2cc3c(-c4ccc[nH]c4=O)c(C(=O)NS(C)(=O)=O)n(Cc4cc(F)ccc4F)c3cc21 (centres undefined) | – | IC50 [1]: 6 to 15 nM
Cc1c(C(=O)O)sc2c(C3CCCCC3)c(-c3ccccc3)n(CC(=O)N(C)C3CCN(C(C)C)C3)c12 (centres undefined) | 130 nM | –
CC(C)N1CC[C@@H](N2CCn3c(c(C4CCCCC4)c4sc(C(=O)O)cc43)-c3ccccc3C2)C1 | 150 nM | –
CCN(CC)C1CCN(C(=O)Cn2c(-c3ccccc3)c(C3CCCCC3)c3ccc(C(=O)O)cc32)CC1 | 800 nM | –
CCCC1(CC(=O)O)OCCC2c3c(CC)ccc(Cl)c3NC21 (centres undefined) | – | IC50 [1]: 3000 nM
CN(C)CC1COc2ccc3nc4n(c3c2C1)CC(CN(C)C)CN4 (centres undefined) | – | Kd [5]: 720 nM
CC(=O)N(c1ccc(N2CCOCC2)c(COc2ccc(-c3nc4cc(C(=O)O)ccc4n3C3CCCCC3)c(F)c2)c1)C(C)C | 270 nM | –
COc1ccc2cc(O[C@@H]3C[C@@H](C(=O)NC4(C(=O)O)CC4)N(C(=O)[C@@H](NC(=O)[C@@H](NC(C)=O)C4CCCCC4)C(C)C)C3)cnc2c1 | – | IC50 [4]: 800 nM
